Reference: patent US10913745B2, “Octahydro-pyrrolo[3,4-c]-pyrrole derivatives and analogs thereof as autotaxin inhibitors” (Hoffmann-La Roche Inc., priority 2013, dated 2021)

molecular target: ATX (human His-tagged) (Homo sapiens (Human), UniProt Q13822); experiment: Human ATX enzyme inhibition assay (fluorescence quenching, MR121 substrate); assay type: biochemical; settings: MR121 substrate 1 μM, ATX 30 nM final, 30° C.
Procedure: Human ATX Enzyme Inhibition Assay
ATX inhibition was measured by a fluorescence quenching assay using a specifically labeled substrate analogue (MR121 substrate). To obtain this MR121 substrate, BOC and TBS protected 6-amino-hexanoic acid (R)-3-({2-[3-(2-{2-[2-(2-amino-ethoxy)-ethoxy]-ethoxy}-ethoxy)-propionylamino]-ethoxy}-hydroxy-phosphoryloxy)-2-hydroxy-propyl ester (Ferguson et al., Org Lett 2006, 8 (10), 2023) was labeled with MR121 fluorophore (CAS 185308-24-1, 1-(3-carboxypropyl)-11-ethyl-1,2,3,4,8,9,10,11-octahydro-dipyrido[3,2-b:2′,3′-i]phenoxazin-13-ium) on the free amine of the ethanolamine side and then, after deprotection, subsequently with tryptophan on the side of the aminohexanoic acid. Assay working solutions were made as follows: Assay buffer (50 mM Tris-HCl, 140 mM NaCl, 5 mM KCl, 1 mM CaCl2, 1 mM MgCl2, 0.01% Triton-X-100, pH 8.0; ATX solution: ATX (human His-tagged) stock solution (1.08 mg/mL in 20 mM bicine, pH 8.5, 0.15 M NaCl, 10% glycerol, 0.3% CHAPS, 0.02% NaN3), diluted to 1.4-2.5× final concentration in assay buffer; MR121 substrate solution: MR121 substrate stock solution (800 μM MR121 substrate in DMSO), diluted to 2-5× final concentration in assay buffer. Test compounds (10 mM stock in DMSO, 8 μL) were obtained in 384 well sample plates (Corning Costar #3655) and diluted with 8 μL DMSO. Row-wise serial dilutions were made by transferring 8 μL cpd solution to the next row up to row O. The compound and control solutions were mixed five times and 2 μL were transferred to 384 well assay plates (Corning Costar #3702). Then, 15 μL of 41.7 nM ATX solution was added (30 nM final concentration), mixed five times and then incubated for 15 minutes at 30° C. 10 μL of MR121 substrate solution was added (1 μM final concentration), mixed 30 times and then incubated for 15 minutes at 30° C.

Structure (SMILES) | IC50
NS(=O)(=O)c1ccc(C(=O)N2C[C@H]3CN(C(=O)OCc4ccc(OC(F)(F)F)cc4)C[C@H]3C2)cc1 [Example 7.02, (3aR,6aS)-5-(4-sulfamoyl-benzoyl)-hexahydro-pyrrolo[3,4-c]pyrrole-2-carboxylic acid 4-trifluoromethoxy-benzyl ester] | 3 nM
NS(=O)(=O)c1ccc(C(=O)N2C[C@H]3CN(C(=O)OCc4ccc(OC(F)(F)F)cc4)C[C@@H]3C2)cc1 [Example 7.03, (3aS,6aS)-5-(4-sulfamoyl-benzoyl)-hexahydro-pyrrolo[3,4-c]pyrrole-2-carboxylic acid 4-trifluoromethoxy-benzyl ester] | 4 nM
NS(=O)(=O)c1ccc(C(=O)N2C[C@H]3CN(C(=O)CCc4ccc(OC(F)(F)F)cc4)C[C@@H]3C2)cc1 [Example 8, 4-{(3aR,6aR)-5-[3-(4-Trifluoromethoxy-phenyl)-propionyl]-hexahydro-pyrrolo[3,4-c]pyrrole-2-carbonyl}-benzenesulfonamide] | 8.5 nM
NS(=O)(=O)c1ccc(C(=O)N2C[C@H]3CN(C(=O)/C=C/c4ccc(OC(F)(F)F)cc4)C[C@@H]3C2)cc1 [Example 8.01, 4-{(3aR,6aR)-5-[(E)-3-(4-trifluoromethoxy-phenyl)-acryloyl]-hexahydro-pyrrolo[3,4-c]pyrrole-2-carbonyl}-benzenesulfonamide] | 7.5 nM
CC(C)Oc1cc(C(=O)N2C[C@H]3CN(C(=O)c4ccc(S(N)(=O)=O)cc4)C[C@H]3C2)cc2ccccc12 [Example 8.02, 4-[(3aR,6aS)-5-(4-isopropoxy-naphthalene-2-carbonyl)-hexahydro-pyrrolo[3,4-c]pyrrole-2-carbonyl]-benzenesulfonamide] | 14 nM
NS(=O)(=O)c1ccc(C(=O)N2C[C@@H]3CN(C(=O)c4cc5ccccc5c(OCC(F)(F)F)n4)C[C@@H]3C2)cc1 [Example 8.03, 4-{(3aR,6aS)-5-[1-(2,2,2-trifluoro-ethoxy)-isoquinoline-3-carbonyl]-hexahydro-pyrrolo[3,4-c]pyrrole-2-carbonyl}-benzenesulfonamide] | 5.5 nM
Cn1c(C(=O)N2C[C@H]3CN(C(=O)c4ccc(S(N)(=O)=O)cc4)C[C@H]3C2)cc2cc(OC(F)(F)F)ccc21 [Example 8.04, 4-[(3aR,6aS)-5-(1-Methyl-5-trifluoromethoxy-1H-indole-2-carbonyl)-hexahydro-pyrrolo[3,4-c]pyrrole-2-carbonyl]-benzenesulfonamide] | 166 nM

Second part, the compound after the results:

IC50 | Structure (SMILES)
93 nM | CC(C)Oc1cc(C(=O)N2C[C@H]3CN(C(=O)c4ccc(S(N)(=O)=O)cc4)C[C@H]3C2)nc2ccccc12 [Example 8.05, 4-[(3aR,6aS)-5-(4-Isopropoxy-quinoline-2-carbonyl)-hexahydro-pyrrolo[3,4-c]pyrrole-2-carbonyl]-benzenesulfonamide]
3 nM | NS(=O)(=O)c1ccc(C(=O)N2C[C@H]3CN(C(=O)c4ccc(-c5ccc(Cl)cc5)cc4)C[C@H]3C2)cc1 [Example 8.06, 4-[(3 aS,6aR)-5-(4′-chloro-biphenyl-4-carbonyl)-hexahydro-pyrrolo[3,4-c]pyrrole-2-carbonyl]-benzenesulfonamide]
1 nM | NS(=O)(=O)c1ccc(C(=O)N2C[C@H]3CN(C(=O)CCc4ccc(OC(F)(F)F)cc4F)C[C@H]3C2)cc1 [Example 8.07, 4-{(3aS,6aR)-5-[3-(2-fluoro-4-trifluoromethoxy-phenyl)-propionyl]-hexahydro-pyrrolo[3,4-c]pyrrole-2-carbonyl}-benzenesulfonamide]
1.5 nM | NS(=O)(=O)c1ccc(C(=O)N2C[C@H]3CN(C(=O)CCc4ccc(OC(F)(F)F)cc4)C[C@H]3C2)cc1 [Example 8.08, 4-{(3aS,6aR)-5-[3-(4-trifluoromethoxy-phenyl)-propionyl]-hexahydro-pyrrolo[3,4-c]pyrrole-2-carbonyl}-benzenesulfonamide]
1 nM | NS(=O)(=O)c1ccc(C(=O)N2C[C@H]3CN(C(=O)CCc4ccc(OC(F)(F)F)cc4F)C[C@@H]3C2)cc1 [Example 8.09, 4-((3 aR,6aR)-5-(3-(2-fluoro-4-(trifluoromethoxy)phenyl)propanoyl)octahydropyrrolo[3,4-c]pyrrole-2-carbonyl)benzenesulfonamide]
